Laboratory results taken from patent US12227511B2, “Bicyclic compounds as kinase modulators, methods and uses thereof” (Agency for Science, Technology and Research, priority 2018, dated 2025).

Key:
[1] = tested on: hepatocellular carcinoma (HCC); settings: clinical; cited from earlier work
[2] = tested on: hepatocellular carcinoma (HCC); settings: HCC patients, cited from earlier work
[3] = tested on: HCCLM3 cells; assay: GI50 in HCCLM3 cells, cell viability by MTS assay; assay type: cell-based; settings: Homo sapiens, 72 hours incubation, triplicates, read-out: HCCLM3 activity range (GI50)
Experimental: To investigate the effects of compounds on hepatocellular carcinoma (HCC) cell viability, HCCLM3 cells (HCC cells with high metastatic potential) were incubated with increasing concentrations of test compounds for 72 hours. Cell viability was evaluated at the end of incubation period by MTS assay. […] All samples were evaluated in triplicates.
As set forth in Table 1 below, GI50 values are defined as follows: GI50≤10 μM (+++); GI50>10 μM and ≤20 μM (++); GI50>20 μM (+).

[4] = tested on: hepatocellular carcinoma (HCC); settings: HCC patients taking Stivarga (Regorafenib); cited from earlier work

SMILES: COc1cc2nccc(Oc3ccc(NC(=O)C4(C(=O)Nc5ccc(F)cc5)CC4)cc3)c2cc1OC [Cabozantinib]
- incidence of adverse events (AEs) compared to Regorafenib [1]: higher incidence of adverse events

SMILES: CNC(=O)c1cc(Oc2ccc(NC(=O)Nc3ccc(Cl)c(C(F)(F)F)c3)cc2)ccn1 [Sorafenib]
- increase of survival rate compared to a placebo ([2]; Sorafenib vs placebo): 2.8 months
- median survival rate ([2]; Sorafenib): about 10.7 months

SMILES: COc1cc2nccc(Oc3ccc(NC(=O)C4(C(=O)NC56CC5CN(C(C)=O)C6)CC4)cc3)c2cc1OC (centres unmarked) [Compound 18, N-(3-acetyl-3-azabicyclo[3.1.0]hexan-1-yl)-N-(4-((6,7-dimethoxyquinolin-4-yl)oxy)phenyl)cyclopropane-1,1-dicarboxamide]
- GI50 [3]: > 20 µM

SMILES: COc1cc2nccc(Oc3ccc(NC(=O)C4(C(=O)NC56CC(C)(C5)C6)CC4)cc3)c2cc1OC [Compound 10, N-(4-((6,7-dimethoxyquinolin-4-yl)oxy)phenyl)-N-(3-methylbicyclo[1.1.1]pentan-1-yl)cyclopropane-1,1-dicarboxamide]
- GI50 [3]: ≤ 10 µM

SMILES: COc1cc2nccc(Oc3ccc(NC(=O)C4(C(=O)N5C[C@@H]6[C@H](C5)[C@H]6C(N)=O)CC4)cc3)c2cc1OC [Compound 22, EXO-3-(1-((4-((6,7-dimethoxyquinolin-4-yl)oxy)phenyl)carbamoyl)cyclopropane-1-carbonyl)-3-azabicyclo[3.1.0]hexane-6-carboxamide]
- GI50 [3]: > 20 µM

SMILES: COc1cc2nccc(Oc3ccc(NC(=O)C4(C(=O)NC56CC(C(=O)N(C)C)(C5)C6)CC4)cc3)c2cc1OC [Compound 8, N-(4-((6,7-dimethoxyquinolin-4-yl)oxy)phenyl)-N-(3-(dimethylcarbamoyl)bicyclo[1.1.1]pentan-1-yl)cyclopropane-1,1-dicarboxamide]
- GI50 [3]: > 20 µM

SMILES: CNC(=O)c1cc(Oc2ccc(NC(=O)Nc3ccc(Cl)c(C(F)(F)F)c3)c(F)c2)ccn1 [Regorafenib]
- median overall survival [4]: about 10.6 months

SMILES: COc1cc2nccc(Oc3ccc(NC(=O)C4(C(=O)NC56CC(OC(=O)c7ccccc7)(C5)C6)CC4)cc3)c2cc1OC [Compound 5, 3-(1-((4-((6,7-dimethoxyquinolin-4-yl)oxy)phenyl)carbamoyl)cyclopropane-1-carboxamido)bicyclo[1.1.1]pentan-1-yl benzoate]
- GI50 [3]: > 20 µM

SMILES: COc1cc2nccc(Oc3ccc(NC(=O)C4(C(=O)NC5C[C@H]6CC[C@@H](C5)N6C)CC4)cc3)c2cc1OC (stereo partly drawn) [Compound 23, ENDO-N-(4-((6,7-dimethoxyquinolin-4-yl)oxy)phenyl)-N-((1R,3r,5S)-8-methyl-8-azabicyclo[3.2.1]octan-3-yl)cyclopropane-1,1-dicarboxamide]
- GI50 [3]: > 20 µM

SMILES: COc1cc2nccc(Oc3ccc(NC(=O)C4(C(=O)NC56CC(F)(C5)C6)CC4)cc3)c2cc1OC [Compound 4, N-(4-((6,7-dimethoxyquinolin-4-yl)oxy)phenyl)-N-(3-fluorobicyclo[1.1.1]pentan-1-yl)cyclopropane-1,1-dicarboxamide]
- GI50 [3]: ≤ 10 µM
